Columns and labels:
Assay in all cases: biochemical
Design in all cases: KINOMEscan active-site competition binding panel (468 kinase assays), per cent of control at 1000 nM
Conditions in all cases: KINOMEscan per cent of control (binding competition); read-out: Percent Control
ITK = ITK (Homo sapiens, UniProt Q08881)
Text: (§1) Figure S7 / Percent Control

LRRK2 = LRRK2 (Homo sapiens, UniProt Q5S007)
Text: as §1

PIM3 = PIM3 (Homo sapiens, UniProt Q86V86)
Text: as §1

FGR = FGR (Homo sapiens, UniProt P09769)
Sequence of FGR (P09769 whole entry): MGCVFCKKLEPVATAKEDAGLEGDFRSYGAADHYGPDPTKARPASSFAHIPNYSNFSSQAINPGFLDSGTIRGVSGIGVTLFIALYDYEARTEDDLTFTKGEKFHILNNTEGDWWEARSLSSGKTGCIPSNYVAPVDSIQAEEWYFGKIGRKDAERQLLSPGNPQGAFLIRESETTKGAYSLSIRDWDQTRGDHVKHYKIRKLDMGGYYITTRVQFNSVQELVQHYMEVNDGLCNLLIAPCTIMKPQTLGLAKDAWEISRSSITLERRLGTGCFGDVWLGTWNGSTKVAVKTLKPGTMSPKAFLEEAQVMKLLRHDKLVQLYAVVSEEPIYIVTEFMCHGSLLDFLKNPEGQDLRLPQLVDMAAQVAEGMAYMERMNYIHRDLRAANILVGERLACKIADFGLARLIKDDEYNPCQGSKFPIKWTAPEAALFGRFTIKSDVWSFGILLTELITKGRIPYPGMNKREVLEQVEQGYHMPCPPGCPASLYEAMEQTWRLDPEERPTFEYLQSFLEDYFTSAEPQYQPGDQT
Text: as §1

ULK3 = ULK3 (Homo sapiens, UniProt Q6PHR2)
Text: as §1

CDK4-cyclinD3 = target: T1, CDK4-cyclinD3 (Homo sapiens, UniProt P11802)
T1 construct: cyclinD3
Text: as §1

PRKCH = PRKCH (Homo sapiens, UniProt P24723)
Text: as §1

EPHA8 = EPHA8 (Homo sapiens, UniProt P29322)
Text: as §1

IRAK1 = IRAK1 (Homo sapiens, UniProt P51617)
Text: as §1

DYRK1B = DYRK1B (Homo sapiens, UniProt Q9Y463)
Text: as §1

[1] = target: T2, TYK2(JH1domain-catalytic) (Homo sapiens, UniProt P29597)
T2 construct: JH1domain-catalytic
Text: as §1

NDR2 = target: T3, NDR2 (Homo sapiens, UniProt Q9Y2H1)
T3 construct: gene STK38L
Text: as §1

MST4 = target: T4, MST4 (Homo sapiens, UniProt Q9P289)
T4 construct: gene STK26
T4 sequence (Q9P289 whole entry): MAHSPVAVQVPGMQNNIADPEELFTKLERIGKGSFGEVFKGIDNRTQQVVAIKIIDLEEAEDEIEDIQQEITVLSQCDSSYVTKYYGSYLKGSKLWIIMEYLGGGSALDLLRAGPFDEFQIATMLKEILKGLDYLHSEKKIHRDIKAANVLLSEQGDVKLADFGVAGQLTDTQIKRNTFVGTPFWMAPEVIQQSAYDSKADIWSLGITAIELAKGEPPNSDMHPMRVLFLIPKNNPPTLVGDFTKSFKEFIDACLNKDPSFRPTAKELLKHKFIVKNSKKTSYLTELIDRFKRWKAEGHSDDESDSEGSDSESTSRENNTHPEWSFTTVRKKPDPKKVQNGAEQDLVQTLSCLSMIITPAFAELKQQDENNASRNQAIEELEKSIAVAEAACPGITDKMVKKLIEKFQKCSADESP
Text: as §1

HIPK2 = HIPK2 (Homo sapiens, UniProt Q9H2X6)
Sequence of HIPK2 (Q9H2X6 whole entry): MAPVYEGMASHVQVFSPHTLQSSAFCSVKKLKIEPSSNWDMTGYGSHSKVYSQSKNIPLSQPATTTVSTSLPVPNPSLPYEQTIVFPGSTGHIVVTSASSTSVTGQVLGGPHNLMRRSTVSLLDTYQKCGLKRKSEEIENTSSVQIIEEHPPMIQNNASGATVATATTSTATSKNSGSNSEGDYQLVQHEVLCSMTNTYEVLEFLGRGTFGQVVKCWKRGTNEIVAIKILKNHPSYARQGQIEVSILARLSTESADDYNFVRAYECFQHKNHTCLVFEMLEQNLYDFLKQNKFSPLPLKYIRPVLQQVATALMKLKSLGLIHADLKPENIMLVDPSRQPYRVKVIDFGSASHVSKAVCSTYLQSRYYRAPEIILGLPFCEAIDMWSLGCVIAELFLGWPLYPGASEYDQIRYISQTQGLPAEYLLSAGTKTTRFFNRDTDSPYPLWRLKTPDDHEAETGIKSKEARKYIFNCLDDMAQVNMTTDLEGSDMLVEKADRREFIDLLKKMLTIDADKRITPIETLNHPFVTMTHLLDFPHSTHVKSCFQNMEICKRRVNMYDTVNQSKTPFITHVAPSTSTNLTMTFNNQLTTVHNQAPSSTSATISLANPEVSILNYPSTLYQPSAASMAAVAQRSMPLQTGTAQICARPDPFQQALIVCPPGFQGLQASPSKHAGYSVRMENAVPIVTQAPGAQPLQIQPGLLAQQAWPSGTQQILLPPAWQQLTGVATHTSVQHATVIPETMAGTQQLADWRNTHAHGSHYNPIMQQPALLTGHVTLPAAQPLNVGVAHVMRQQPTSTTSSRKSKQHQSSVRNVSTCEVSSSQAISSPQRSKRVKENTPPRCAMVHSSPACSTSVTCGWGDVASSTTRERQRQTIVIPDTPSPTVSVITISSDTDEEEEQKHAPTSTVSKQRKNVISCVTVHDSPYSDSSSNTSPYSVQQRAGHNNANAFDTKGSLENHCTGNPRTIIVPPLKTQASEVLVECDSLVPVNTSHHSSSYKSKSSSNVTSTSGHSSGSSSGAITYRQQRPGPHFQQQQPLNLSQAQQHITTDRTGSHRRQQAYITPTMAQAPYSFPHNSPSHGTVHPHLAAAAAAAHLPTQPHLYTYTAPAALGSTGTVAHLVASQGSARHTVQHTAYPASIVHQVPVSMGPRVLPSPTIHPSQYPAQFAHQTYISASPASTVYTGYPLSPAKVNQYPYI
Text: as §1

LKB1 = target: T5, LKB1 (Homo sapiens, UniProt Q15831)
T5 construct: gene STK11
Text: as §1

FLT3(D835Y) = FLT3(D835Y) (Homo sapiens, UniProt P36888, D835Y)
Text: as §1

MAP3K4 = MAP3K4 (Homo sapiens, UniProt Q9Y6R4)
Text: as §1

PCTK1 = target: T6, PCTK1 (Homo sapiens, UniProt Q00536)
T6 construct: gene CDK16
Text: as §1

EPHA7 = EPHA7 (Homo sapiens, UniProt Q15375)
Text: as §1

p38-delta = target: T7, p38-delta (Homo sapiens, UniProt O15264)
T7 construct: gene MAPK13
Text: as §1

GCN2(Kin.Dom.2,S808G) = target: T8, GCN2(Kin.Dom.2,S808G) (Homo sapiens, UniProt Q9P2K8, S808G)
T8 construct: gene EIF2AK4; Kin.Dom.2
Text: as §1

FGFR1 = FGFR1 (Homo sapiens, UniProt P11362)
Sequence of FGFR1 (P11362 whole entry): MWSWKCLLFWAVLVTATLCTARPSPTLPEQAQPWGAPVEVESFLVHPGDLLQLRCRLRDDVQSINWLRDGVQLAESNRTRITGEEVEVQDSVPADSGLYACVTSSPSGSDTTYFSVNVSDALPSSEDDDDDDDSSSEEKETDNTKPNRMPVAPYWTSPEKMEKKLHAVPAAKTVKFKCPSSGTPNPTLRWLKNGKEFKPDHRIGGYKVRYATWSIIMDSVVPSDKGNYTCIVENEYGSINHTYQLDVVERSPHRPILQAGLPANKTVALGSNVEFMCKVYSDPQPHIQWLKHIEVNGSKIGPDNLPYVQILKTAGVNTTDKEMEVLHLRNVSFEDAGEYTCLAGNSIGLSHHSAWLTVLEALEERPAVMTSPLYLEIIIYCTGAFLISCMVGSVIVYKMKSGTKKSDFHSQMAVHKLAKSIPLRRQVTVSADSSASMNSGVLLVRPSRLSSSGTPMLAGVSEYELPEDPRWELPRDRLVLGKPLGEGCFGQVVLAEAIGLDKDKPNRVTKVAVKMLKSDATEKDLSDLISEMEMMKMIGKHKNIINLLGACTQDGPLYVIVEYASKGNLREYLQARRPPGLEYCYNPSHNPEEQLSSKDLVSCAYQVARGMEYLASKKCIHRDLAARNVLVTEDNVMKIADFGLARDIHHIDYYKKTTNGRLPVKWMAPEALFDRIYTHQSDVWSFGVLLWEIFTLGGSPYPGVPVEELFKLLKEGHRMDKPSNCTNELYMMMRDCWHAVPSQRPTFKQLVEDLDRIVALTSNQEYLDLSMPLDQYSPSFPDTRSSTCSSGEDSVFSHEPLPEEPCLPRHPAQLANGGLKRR
Text: as §1

PKN1 = PKN1 (Homo sapiens, UniProt Q16512)
Sequence of PKN1 (Q16512 whole entry): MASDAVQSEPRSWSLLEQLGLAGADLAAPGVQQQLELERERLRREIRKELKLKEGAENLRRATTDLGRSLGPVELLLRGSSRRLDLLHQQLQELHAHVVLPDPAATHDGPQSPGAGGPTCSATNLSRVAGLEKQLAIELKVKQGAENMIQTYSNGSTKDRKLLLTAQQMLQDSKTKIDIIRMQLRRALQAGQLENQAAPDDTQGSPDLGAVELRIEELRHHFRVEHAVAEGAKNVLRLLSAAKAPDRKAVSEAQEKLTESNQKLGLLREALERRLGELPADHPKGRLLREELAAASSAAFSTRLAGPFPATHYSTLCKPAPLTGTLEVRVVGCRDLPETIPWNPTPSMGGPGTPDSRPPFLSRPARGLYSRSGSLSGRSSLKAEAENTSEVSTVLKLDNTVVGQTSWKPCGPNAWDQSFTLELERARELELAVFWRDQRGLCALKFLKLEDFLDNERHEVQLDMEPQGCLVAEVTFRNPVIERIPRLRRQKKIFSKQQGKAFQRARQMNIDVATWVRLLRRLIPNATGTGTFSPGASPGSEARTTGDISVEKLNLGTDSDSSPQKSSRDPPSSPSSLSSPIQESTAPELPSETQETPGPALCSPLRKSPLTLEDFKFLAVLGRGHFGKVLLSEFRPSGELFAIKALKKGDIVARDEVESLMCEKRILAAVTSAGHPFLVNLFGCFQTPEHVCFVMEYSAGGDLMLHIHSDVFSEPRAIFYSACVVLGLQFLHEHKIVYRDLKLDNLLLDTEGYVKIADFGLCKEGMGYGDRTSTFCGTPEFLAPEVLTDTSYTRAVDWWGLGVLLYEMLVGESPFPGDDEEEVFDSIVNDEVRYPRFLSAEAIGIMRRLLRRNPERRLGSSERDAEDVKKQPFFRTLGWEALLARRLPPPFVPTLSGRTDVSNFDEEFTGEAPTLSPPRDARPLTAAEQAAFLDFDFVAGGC
Text: as §1

MYLK4 = MYLK4 (Homo sapiens, UniProt Q86YV6)
Sequence of MYLK4 (Q86YV6 whole entry): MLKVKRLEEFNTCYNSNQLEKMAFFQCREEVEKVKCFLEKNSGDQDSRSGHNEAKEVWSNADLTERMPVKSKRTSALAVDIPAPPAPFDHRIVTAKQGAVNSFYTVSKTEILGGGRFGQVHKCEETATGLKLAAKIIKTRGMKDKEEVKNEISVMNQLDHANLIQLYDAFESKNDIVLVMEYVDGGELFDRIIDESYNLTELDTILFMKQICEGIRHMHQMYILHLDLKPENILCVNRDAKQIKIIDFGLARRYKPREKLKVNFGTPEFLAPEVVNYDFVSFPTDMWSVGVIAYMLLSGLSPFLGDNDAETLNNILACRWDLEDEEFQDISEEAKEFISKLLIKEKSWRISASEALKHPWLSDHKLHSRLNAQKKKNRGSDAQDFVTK
Text: as §1

PRKCE = PRKCE (Homo sapiens, UniProt Q02156)
Sequence of PRKCE (Q02156 whole entry): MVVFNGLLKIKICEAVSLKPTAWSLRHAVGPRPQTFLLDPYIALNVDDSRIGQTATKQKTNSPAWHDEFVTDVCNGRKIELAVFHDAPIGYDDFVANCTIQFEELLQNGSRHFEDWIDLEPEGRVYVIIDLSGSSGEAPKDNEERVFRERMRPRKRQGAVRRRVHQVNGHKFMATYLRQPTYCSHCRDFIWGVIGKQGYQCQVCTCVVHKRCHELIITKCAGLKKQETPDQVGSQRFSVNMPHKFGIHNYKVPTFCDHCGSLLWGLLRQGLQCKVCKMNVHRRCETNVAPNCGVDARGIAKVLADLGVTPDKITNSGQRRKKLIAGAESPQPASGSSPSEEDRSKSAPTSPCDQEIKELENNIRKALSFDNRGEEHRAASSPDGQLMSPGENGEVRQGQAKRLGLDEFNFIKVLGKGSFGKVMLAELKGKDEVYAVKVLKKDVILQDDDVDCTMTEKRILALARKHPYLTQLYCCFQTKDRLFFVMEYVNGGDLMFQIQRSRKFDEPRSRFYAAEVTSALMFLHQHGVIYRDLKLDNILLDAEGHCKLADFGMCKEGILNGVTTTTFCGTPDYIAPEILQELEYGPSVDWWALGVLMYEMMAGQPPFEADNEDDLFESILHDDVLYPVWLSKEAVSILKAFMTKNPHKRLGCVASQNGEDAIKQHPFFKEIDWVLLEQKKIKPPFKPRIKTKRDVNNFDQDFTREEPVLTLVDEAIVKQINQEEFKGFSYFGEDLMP
Text: as §1

Cn1c(=O)[nH]c2ccc(-c3cccc(C(=O)NC4CCn5ccnc5C4)c3)cc21 (stereo not shown) [Z36-MP5]
remaining binding at 1 µM (ITK): 96%
remaining binding at 1 µM (LRRK2): 71%
remaining binding at 1 µM (PIM3): 85%
remaining binding at 1 µM (FGR): 85%
remaining binding at 1 µM (ULK3): 71%
remaining binding at 1 µM (CDK4-cyclinD3): 54%
remaining binding at 1 µM (PRKCH): 52%
remaining binding at 1 µM (EPHA8): 75%
remaining binding at 1 µM (IRAK1): 80%
remaining binding at 1 µM (DYRK1B): 86%
remaining binding at 1 µM [1]: 64%
remaining binding at 1 µM (NDR2): 74%
remaining binding at 1 µM (MST4): 82%
remaining binding at 1 µM (HIPK2): 64%
remaining binding at 1 µM (LKB1): 97%
remaining binding at 1 µM (FLT3(D835Y)): 88%
remaining binding at 1 µM (MAP3K4): 63%
remaining binding at 1 µM (PCTK1): 82%
remaining binding at 1 µM (EPHA7): 93%
remaining binding at 1 µM (p38-delta): 98%
remaining binding at 1 µM (GCN2(Kin.Dom.2,S808G)): 94%
remaining binding at 1 µM (FGFR1): 55%
remaining binding at 1 µM (PKN1): 99%
remaining binding at 1 µM (MYLK4): 93%
remaining binding at 1 µM (PRKCE): 100%
